pIC50: −log10 of the molar value.

The subject of one series is P388/VCR. The series can be described thus: In vivo activity against drug resistant tumour P388/VCR. Conditions: optimum dose 12.5 mg/kg. Also on record: species or system mouse. Here is the method:
(§1) CD2-F1 mice, of the same sex, weighing within a 3 gram range surrounding 20 g, are used for this test. Control and test animals are injected intraperitoneally with a suspension of 10^6 viable P388/O tumour cells on day 0. In each test several dose levels which bracket the LD20 for the compound are evaluated; each dose level group contains 6 animals. The test compounds are prepared either in physiologic saline containing 0.05% Tween 80 or distilled water containing 5% dextrose and are administered intraperitoneally on days 1,5 and 9 relative to tumour implant. Doses are on a mg/kg basis according to individual animals' body weights. The day of death for each animal is recorded and the median day of death identified for each group. The difference between the median survival time for treated and control groups is expressed as a percentage increase in life span (% ILS).
(§2) E. Activity Against Drug-Resistant Tumours
(§3) Using a similar procedure to the Lymphocytic Leukaemia P388/O test, the compound of Example 1 was evaluated against P388/O tumours which had been made resistant to the following standard, clinically used anti-tumour agents: […]

For a further series, the system named is P388/ActD. The series can be described thus: In vivo activity against drug resistant tumour P388/ActD. The arrangement: species or system mouse. Conditions: optimum dose 12.5 mg/kg. Here is the method: as §1, §2, §3
In the next series the test system is P388/BCNU. The series can be described thus: In vivo activity against drug resistant tumour P388/BCNU. Conditions: optimum dose 7.5 mg/kg. Also on record: species or system mouse. Here is the method: as §1, §2
Using a similar procedure to the Lymphocytic Leukaemia P388/O test, the compound of Example 1 was evaluated against P388/O tumours which had been made resistant to the following standard, clinically used anti-tumour agents:
bis-chloronitrosourea (BCNU)

The next series deals with tubulin. As to the kind of experiment: Turbidimetric assay of tubulin polymerisation. It counts as biochemical, horse. Conditions: 37° C., increase in A350nm 10 min after lag phase; read-out: Total tubulin polymerisation IC50. Here is the method: A) Tubulin Polymerisation Assay
1. Preparation of tubulin
All manipulations are performed at 4° C. unless otherwise specified. The horse brain is washed in ice-cold BBG buffer and superficial meninges and blood vessels removed. After weighing, cerebral cortices are chopped, homogenised in 75 ml BBG buffer/100 g brain, centrifuged at 6500 g for 15 min and after removal of […], re-centrifuged at 100,000 g for 75 min. The volume of the supernatant (Vml) is measured and V/10 ml 10 mM GTP (Li salt) in H2 O added. The mixture is incubated in sealed centrifuge tubes (30 min, 34° C.) in a shaking water bath to polymerise the tubulin. After polymerisation the tubes are balanced and centrifuged at 100,000 g, (1 h at 27° C.) in a pre-warmed rotor. The high-speed pellet is resuspended in V/4 ml BB buffer and the preparation stirred on ice for 30 min and centrifuged at 100,000 g (1 h at 4° C.) to remove the cold-stable microtubules. An equal volume of BB2G buffer is added to the supernatant which is frozen rapidly in 5 ml samples in plastic weighing dishes floated on a solid CO2 /ethanol slurry, and stored overnight at -80° C. After ca. 18 hours the frozen samples of tubulin are thawed, 10 mM GTP in H2 O added to give a final concentration of 1 mM, and the new volume (Wml), is measured. The polymerisation/depolymerisation cycle is repeated exactly as above but substituting W for V to give twice-cycled tubulin.
2. Turbidimetric Assay of Tubulin Polymerisation
Apparatus: recording spectrophotometer with a 6-position, thermostatted cuvette holder; full scale deflection=0.2 absorbance units.
In a 1 ml spectrophotometer cuvette are mixed 100 μl 10 mM GTP (Li salt) made up in BB buffer, 10 μl H2 O or DMSO-depending on selected drug solvent, BB buffer and tubulin preparation such that the final increase in A350nm is 0.15 units after 16 mins (approx. 100 μl of tubulin prep. or 2.5 mg protein) in a final volume of 1 ml at 37° C. All reagents are stored on ice.
Polymerisation is initiated by raising the temperature to 37° C. and the increase in A350nm of triplicate samples against a reference cuvette is recorded. The reference sample includes a similar incubation mixture either without tubulin or with the addition of 1 mM Ca^2+. The increase over initial A350nm 10 min after the completion of lag phase (control polymerisation is 80% complete within this time) is calculated and expressed as a percentage of the control value, for a range of drug concentrations. The drug concentration required to give a 50% change (IC50) in the control value is determined.

Another series has as its system P388/AMSA. The series can be described thus: In vivo activity against drug resistant tumour P388/AMSA. The note with it: optimum dose 5.0 mg/kg. Also on record: species or system mouse.
A further series can be described thus: LD20 (Mouse). It counts as in vivo. The note with it: i.p. days 1, 5 and 9, CD2-F1 mice, observed up to 14 days.
The next series deals with strains of P388. As to the kind of experiment: In vivo activity against strains of P388 resistant to major clinically used anti-tumour agents. The note with it: resistant to cyclophosphamide, methotrexate, actinomycin D, vincristine, adriamycin, 5-fluorouracil, cis-platinum, bis-chloronitrosourea and amsacrine. Also on record: species or system mouse. Here is the method:
as §1, §2, §3

The subject of the next series is P388 D1 cells. As to the kind of experiment: P388 D1 colony-forming assay. It counts as cell-based. Conditions: Mus musculus, P388D1; 24 h exposure, 14 days colony growth; read-out: IC50 colony formation. Here is the method:
B) P338D1 Colony-forming Assay
In this assay, cells from an in vitro-adapted line of the mouse lymphoid neoplasm, P388 are first exposed to serially diluted concentrations of test compound over a 24 hour period in culture. Thereafter, the ability of such treated cells to form discrete colonies over a 14 day period after resuspension in a semi-solid drug-free medium is determined.
Initially cells in log growth are plated into individual 25 cm^2 tissue culture flasks each containing a final volume of 5 mls of Hepes buffered RPMI 1640 culture medium supplemented with 10 percent foetal calf serum, antibiotics and test compound. All compounds are formulated initially at appropriate concentrations in DMSO, 25 microliters of which is then added to each flask. All compounds are evaluated at concentrations ranging serially in four fold decrements from a top concentration some four fold greater than that already known to inhibit the proliferation of these cells by about 80 to 90 percent in the primary proliferative assay.
After 24 hrs exposure to the test compound the cells are counted and a known number of live cells transferred to a 15 ml centrifuge tube to which 4 mls of a 0.25 percent low temperature gelling agarose solution in complete RPMI tissue culture medium is then added. After 13 days incubation at 37° C., 1 ml of 1% p-Iodonitrotetrazolium violet is added to the top of each tube and allowed to permeate through the agarose for a further 24 to 48 hrs. This dye is metabolised by living cells to produce an insoluble red crystalline product which facilitates counting of the colonies. Samples are taken from each tube and the number of colonies containing a minimum of 50 cells is determined. The concentration of compound necessary to inhibit colony formation by 50 percent relative to that of control cells incubated under identical conditions but in the absence of the test compound is determined.

One may read the pIC50 as −log10 of the IC50, conventionally taken in molar units. The term LD50 denotes the dose at which mortality reaches 50%. A high value points to a less toxic substance. Consider `COC(=O)Nc1cn2nc(OCc3cc(OC)c(OC)c(OC)c3)ccc2n1` [Example 1, Methyl N-[6-(3,4,5-trimethoxybenzyloxy)imidazo[1,2-b]pyridazin-2-yl]carbamate], for which the “60 Day Survivors” value is on record as 3/6 in the series on P388/VCR, 1/6 in the series on P388/ActD, 0/6 in the series on P388/BCNU and 4/6 in the series with P388/AMSA ((day 31)). The “% ILS” value was “+145%” with P388/VCR, “+109%” with P388/ActD, “+131%” with P388/BCNU and “+134%” with P388/AMSA. In addition, the pIC50 is 6.38 in the series with tubulin and 7.88 in the series with P388 D1 cells. This compound returned a median lethal dose (LD50) in the series “LD20 (Mouse)” of 20 to 30 mg/kg. Also, the “activity in vivo against resistant strains of P388” value in the series with strains of P388 was “good activity in vivo”.

Values taken from patent publication US5380759A, “Methyl N-[6-(3,4,5-trimethoxybenzloxy)imidazo[1,2-b]pyridazin-2-zyl]carbamate used to treat leukemia” (priority 1987, dated 1995).
